The text below walks through data of a compilation of properties of binary mixtures (doi:10.1016/j.seppur.2020.117103).

This data set is described as follows: xn = mol fraction of the nth substance listed. Conditions: 298.15 K, 100 kPa.

Usually speed of sound stands for how fast a sound wave travels through the sample. With `CC[n+]1ccn(C)c1.N#C[S-]` + CCO, the speed of sound came out at 1851 m/s (x2 = 0); 1797 m/s (x2 = 0.2134); 1751 m/s (x2 = 0.345); 1729 m/s (x2 = 0.3836); 1592 m/s (x2 = 0.6181); 1524 m/s (x2 = 0.6948). The molecule further gave a speed of sound (x2 = 0.8944) of 1285 m/s.

Take `CCO` + CC[n+]1ccn(C)c1.N#C[S-]: where the note is “x1 = 1”, the speed of sound was 1142 m/s.

With `CO` + CC[n+]1ccn(C)c1.N#C[S-], the speed of sound (x1 = 1) stood at 1103 m/s.

Regarding `CC[n+]1ccn(C)c1.N#C[S-]` + CO, the speed of sound (x2 = 0) is listed as 1851 m/s; the speed of sound (x2 = 0.2018) is 1813 m/s; the speed of sound (x2 = 0.3185) is recorded as 1780 m/s; the speed of sound (x2 = 0.4076) was 1750 m/s; the speed of sound (x2 = 0.5037) is given as 1711 m/s; the speed of sound (x2 = 0.5936) is recorded as 1655 m/s. Further, the speed of sound is 1585 m/s (x2 = 0.6923), 1477 m/s (x2 = 0.805) and 1328 m/s (x2 = 0.9014).
